From patent publication US7807678B2, “Peptidomimetics of biologically active metallopeptides” (Palatin Technologies, Inc., priority 2001, dated 2010)
Where two headings read alike, the source gives them in different places. Non-standard residues stand in square brackets, D forms with d. Residues, ends and D or L forms follow the SMILES beside them. *: point of attachment. Hyp = O=C(O)[C@@H]1C[C@@H](O)CN1; Nle = CCCC[C@H](N)C(=O)O; NH(CH2)3NH2 = NCCCN*; Bn = c1ccc(C*)cc1

What was measured:
[1] = target: T1, MC5-R (HEK-293 cells) (Homo sapiens, UniProt P33032); experiment: cAMP assay for agonist/antagonist status, MC5-R; format: cell-based
T1 construct: expressed in transfected cells; host or cells: HEK-293
Description: (§1) The Ki (nM) of certain peptidomimetics were determined, as was the agonist/antagonist status with respect to MC4-R, Functional evaluation of compounds at melanocortin receptors was performed by measuring the accumulation of intracellular cAMP in HEK-293 cells expressing MC3-R, MC4-R or MC5-R, and in B-16 mouse melanoma cells (containing MC1-R). Antagonistic activity was determined by measuring the inhibition of α-MSH-induced cAMP levels following exposure to the compounds. Cells, suspended in Earle's Balanced Salt Solution containing 10 mM HEPES, pH 7.5, 5 mM MgCl2, 1 mM glutamine, 0.1% albumin and 0.6 mM 3-isobutyl-1-methyl-xanthine, a phosphodiesterase inhibitor, were plated in 96 well plates at a density of 0.5×10^5 cells per well. Cells were incubated with the test compounds in the presence or absence of α-MSH for 1 hour at 37° C. cAMP levels were measured by EIA (Amersham) in the cell lysates. Data analysis and EC50 values were determined using nonlinear regression analysis with Prism Graph-Pad software.

[2] = target: T2, MC1-R (B-16 mouse melanoma cells) (Mus musculus, UniProt Q01727); experiment: cAMP assay for agonist/antagonist status, MC1-R; format: cell-based
T2 construct: B-16 mouse melanoma cells (containing MC1-R); endogenous in cells; host or cells: B-16 mouse melanoma cells
Description: as §1

[3] = target: MC3-R (Homo sapiens, UniProt P41968); experiment: Competitive inhibition binding assay, 125I-NDP-α-MSH, MC3-R; set-up: expressed in transfected cells; settings: 1 μM compound; inhibition of 125I-NDP-α-MSH binding; mean of triplicates; results less than 0% reported as 0%
Summary of the method: (§2)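 Membranes from hMC3-R, hMC4-R or hMC5-R cells, or B-16 mouse melanoma cells (MC1-R), were incubated 90 min at room temperature with 0.4 nM 125I-NDP-α-MSH in HEPES pH 7.2 with Mg2+/Ca2+/K+, and test compound generally at 1 μM. Filter-bound radioactivity was gamma counted. Specific binding was defined with 1 μM α-MSH; triplicate means.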

[4] = target: MC4-R (Homo sapiens, UniProt P32245); experiment: Competitive inhibition binding assay, 125I-NDP-α-MSH, MC4-R; set-up: expressed in transfected cells; settings: 1 μM compound; inhibition of 125I-NDP-α-MSH binding; mean of triplicates; results less than 0% reported as 0%
Summary of the method: as §2

[5] = target: MC5-R (Homo sapiens, UniProt P33032); experiment: Competitive inhibition binding assay, 125I-NDP-α-MSH, MC5-R; set-up: expressed in transfected cells; settings: 1 μM compound; inhibition of 125I-NDP-α-MSH binding; mean of triplicates; results less than 0% reported as 0%
Summary of the method: as §2

[6] = target: T3, MC4-R (HEK-293 cells) (Homo sapiens, UniProt P32245); experiment: cAMP assay for agonist/antagonist status, MC4-R; format: cell-based
T3 construct: expressed in transfected cells; host or cells: HEK-293
Description: as §1

[7] = target: T2, MC1-R (B-16 mouse melanoma cells); experiment: Competitive inhibition binding assay, 125I-NDP-α-MSH, MC1-R; settings: 1 μM compound; inhibition of 125I-NDP-α-MSH binding; mean of triplicates; results less than 0% reported as 0%
Summary of the method: as §2

T3 sequence (P32245 whole entry): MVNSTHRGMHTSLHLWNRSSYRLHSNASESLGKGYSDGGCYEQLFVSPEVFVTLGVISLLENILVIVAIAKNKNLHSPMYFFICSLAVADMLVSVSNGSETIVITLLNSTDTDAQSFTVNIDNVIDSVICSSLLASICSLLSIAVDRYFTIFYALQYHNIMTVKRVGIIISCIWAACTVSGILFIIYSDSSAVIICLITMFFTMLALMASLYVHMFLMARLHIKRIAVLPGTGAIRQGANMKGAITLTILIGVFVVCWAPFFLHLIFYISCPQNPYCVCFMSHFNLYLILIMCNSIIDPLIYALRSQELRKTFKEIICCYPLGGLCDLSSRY
Sequence of MC4-R (P32245 whole entry): as above
T1 sequence (P33032 whole entry): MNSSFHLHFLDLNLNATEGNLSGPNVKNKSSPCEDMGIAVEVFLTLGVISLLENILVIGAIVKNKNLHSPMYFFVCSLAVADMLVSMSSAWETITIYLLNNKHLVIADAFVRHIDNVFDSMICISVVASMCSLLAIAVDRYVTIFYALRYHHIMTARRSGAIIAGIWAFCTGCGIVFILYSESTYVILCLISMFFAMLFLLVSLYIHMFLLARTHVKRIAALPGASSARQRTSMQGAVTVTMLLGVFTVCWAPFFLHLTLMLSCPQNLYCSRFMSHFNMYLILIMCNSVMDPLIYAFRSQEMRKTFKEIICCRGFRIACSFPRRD
Sequence of MC5-R (P33032 whole entry): as above
Sequence of MC3-R (P41968 whole entry): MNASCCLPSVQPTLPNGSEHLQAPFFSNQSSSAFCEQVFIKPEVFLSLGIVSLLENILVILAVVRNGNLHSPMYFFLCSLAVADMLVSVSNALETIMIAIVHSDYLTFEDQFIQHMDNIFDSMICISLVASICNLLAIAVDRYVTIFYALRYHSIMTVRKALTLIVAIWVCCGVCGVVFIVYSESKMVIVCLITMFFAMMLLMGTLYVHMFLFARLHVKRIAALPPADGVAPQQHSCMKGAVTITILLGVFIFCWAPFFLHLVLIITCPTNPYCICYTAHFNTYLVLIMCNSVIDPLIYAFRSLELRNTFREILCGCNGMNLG
T2 sequence (Q01727 whole entry): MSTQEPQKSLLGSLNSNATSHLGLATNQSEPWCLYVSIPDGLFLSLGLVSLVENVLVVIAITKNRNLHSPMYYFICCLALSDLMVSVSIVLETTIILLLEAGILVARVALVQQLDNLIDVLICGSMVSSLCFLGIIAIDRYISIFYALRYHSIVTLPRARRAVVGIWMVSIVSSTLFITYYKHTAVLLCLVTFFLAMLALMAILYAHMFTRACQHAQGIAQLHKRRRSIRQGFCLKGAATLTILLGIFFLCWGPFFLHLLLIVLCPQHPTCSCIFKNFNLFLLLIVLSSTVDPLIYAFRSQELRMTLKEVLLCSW

SMILES | agonist/antagonist status as to MC5-R [1] | agonist/antagonist status as to MC1-R [2] | Inhibition at 1 μM MC3-R [3] | Inhibition at 1 μM MC4-R [4] | Inhibition at 1 μM MC5-R [5] | agonist/antagonist status as to MC4-R [6] | Inhibition at 1 μM MC1-R [7] | agonist/antagonist status as to MC1-R ([2]; listed as Compound 1)
NCCCC[C@H]1C(=O)N(CCc2ccc3ccccc3c2)CCN1C(=O)[C@@H](Cc1ccc(Cl)cc1Cl)NC(=O)[C@@H](N)COCc1ccccc1 [Example 22] | agonist | agonist | 47% | 98% | 76% | agonist | 40% | 
NCCCC[C@H]1C(=O)N(CCc2ccc3ccccc3c2)CCN1C(=O)[C@@H](Cc1ccc(Cl)cc1Cl)NC(=O)c1ccc(Oc2ccccc2)cc1 [Example 37] | agonist | antagonist | 51% | 99% | 51% | antagonist | 35% | 
N=C(N)NCCC[C@H]1C(=O)N(CCc2ccc3ccccc3c2)CCN1C(=O)[C@@H](Cc1ccc(Cl)cc1Cl)NC(=O)[C@@H](N)COCc1ccccc1 [Example 53] | agonist | agonist | 93% | 99% | 96% | agonist | 81% | 
CCCC[C@H](NC(C)=O)C(=O)N[C@@H](C)C(=O)N[C@@H](Cc1cnc[nH]1)C(=O)N[C@H](Cc1ccccc1)C(=O)N1C[C@H](OCc2ccccc2)C[C@H]1C(=O)NCCCN [Example 133] (Ac-[Nle]AH[dF][Hyp](Bn)-{NH(CH2)3NH2}) |  | agonist | 13% | 8% | 25% |  | 91% | full agonistic activity
N=C(N)NCCC[C@H]1C(=O)N2C(CC[C@@H]2COc2ccc3ccccc3c2)N1C(=O)[C@@H](Cc1ccc(Cl)cc1Cl)NC(=O)[C@@H](N)COCc1ccccc1 (stereo partly shown) [Example 114] | agonist | agonist | 77% | 100% | 94% | agonist | 53% | 
NCCCC[C@H]1C(=O)N(CCc2ccc3ccccc3c2)CCN1C(=O)[C@@H](Cc1ccc(Cl)cc1Cl)NC(=O)c1cccc(Oc2ccccc2)c1 [Example 38] | agonist | antagonist | 21% | 97% | 61% | antagonist | 3% | 
NCCCC[C@H]1C(=O)N(CCc2ccc3ccccc3c2)CCN1C(=O)[C@@H](Cc1ccc(Cl)cc1Cl)NC(=O)CCc1ccccc1 [Example 36] | agonist | agonist | 22% | 92% | 34% | antagonist | 72% | 
N=C(N)NCCCC[C@H]1C(=O)N(CCc2ccc3ccccc3c2)CCN1C(=O)[C@H](N)Cc1ccc(Cl)cc1Cl [Example 67] |  |  | 68% | 96% | 42% |  | 66% | 
N[C@H](Cc1ccc(Cl)cc1Cl)C(=O)N1CCN(CCc2ccc3ccccc3c2)C(=O)[C@@H]1CCCNc1nncs1 [Example 70] |  |  | 31% | 70% | 32% |  | 28% | 
NCCCC[C@H]1C(=O)N2C(CC[C@@H]2COc2ccc3ccccc3c2)N1C(=O)[C@@H](Cc1ccccc1Cl)NCc1ccccc1 (stereo partly shown) [Example 102] |  |  | 13% | 16% | 14% |  | 11% | 
CC(=O)NCCCC[C@H]1C(=O)N(CCc2ccc3ccccc3c2)CCN1C(=O)[C@H](N)Cc1ccc(Cl)cc1Cl [Example 65] |  |  | 3% | 26% | 0% |  | 17% | 
NCCCNC(=O)[C@@H]1C[C@@H](OCc2ccccc2)CN1C(=O)[C@@H](Cc1ccccc1)NC(=O)[C@@H](N)Cc1ccc(-c2ccccc2)cc1 [Example 171] |  |  | 0% | 9% | 25% |  | 11% | 
CCNC(=N)NCCC[C@H]1C(=O)N(CCc2ccc3ccccc3c2)CCN1C(=O)[C@H](N)Cc1ccc(Cl)cc1Cl [Example 73] |  |  | 35% | 91% | 24% |  | 14% | 
NCCCNC(=O)C1CC(OCc2ccccc2)CN1C(=O)C(Cc1ccccc1)NC(=O)C1NCCc2ccccc21 (stereo not shown) [Example 160] |  |  | 36% | 5% | 0% |  | 1% | 
NCCCNC(=O)[C@@H]1C[C@@H](OCc2ccccc2)CN1C(=O)[C@@H](Cc1ccccc1)NC(=O)C1(N)CCCCC1 [Example 162] |  |  | 41% | 8% | 0% |  | 0% | 
CCCCCCC(=O)N[C@@H](Cc1cnc[nH]1)C(=O)N[C@H](Cc1ccccc1)C(=O)N1C[C@H](OCc2ccccc2)C[C@H]1C(=O)NCCCNC(=N)N [Example 154] |  |  | 7% | 1% | 1% |  | 92% | 
NCCCNC(=O)[C@@H]1C[C@@H](OCc2ccccc2)CN1C(=O)[C@@H](Cc1ccccc1)NC(=O)[C@H](N)C1Cc2ccccc2C1 [Example 175] |  |  | 0% | 19% | 0% |  | 3% | 
CC(O)C(N)C(=O)NC(Cc1ccccc1)C(=O)N1CC(OCc2ccccc2)CC1C(=O)NCCCN (stereo not shown) [Example 176] |  |  | 0% | 8% | 8% |  | 18% | 
NCCCC[C@H]1C(=O)N2C(CC[C@@H]2COc2ccc3ccccc3c2)N1C(=O)[C@@H](Cc1ccccc1Cl)NC(=O)[C@@H]1Cc2ccccc2CN1 (stereo partly shown) [Example 83] |  |  | 2% | 89% | 38% |  | 42% | 
C[C@H](N)C(=O)N[C@@H](Cc1cnc[nH]1)C(=O)N[C@H](Cc1ccccc1)C(=O)N1C[C@H](OCc2ccccc2)C[C@H]1C(=O)NCCCN [Example 135] (H-AH[dF][Hyp](Bn)-{NH(CH2)3NH2}) |  |  | 0% | 0% | 0% |  | 93% | 
